In patent US11332450B2, “Isoxazole as FXR receptor agonists” (Bar Pharmaceuticals Societa' A Responsabilita' Limitata, priority 2018, dated 2022):

How the values were obtained:
[1] = tested on: liver BSEP mRNA; experiment: Liver BSEP mRNA expression in mice after administration of compound; type: in vivo, mouse; details: administered per os, 10 mg/kg daily for 3 days
Experimental: (§1) Total RNA was isolated from HepG2 cells or liver tissue using the TRIzol reagent according to the manufacturer's specifications (Invitrogen). One microgram of purified RNA was treated with DNase-I and reverse transcribed with QuantiTect Reverse Transcription Kit (Qiagen). For Real Time PCR, 10 ng template was dissolved in 25 μL containing 200 nmol/L of each primer and 12.5 μL of 2×SYBR FAST Universal ready mix (Invitrogen). All reactions were performed in triplicate, and the thermal cycling conditions were as follows: 2 min at 95° C., followed by 40 cycles of 95° C. for 20 s and 60° C. for 30 s in StepOnePlus (Applied Biosystems). The relative mRNA expression was calculated in accord to the Ct method. Forward and reverse primer sequences were the following: human GAPDH: [NT] (SEQ ID: 1) and [NT] (SEQ ID: 2); human SHP: [NT] (SEQ ID: 3) and [NT] (SEQ ID: 4); mouse GAPDH, [NT] (SEQ ID: 5) and [NT] (SEQ ID: 6); mouse SHP [NT] (SEQ ID: 7) and [NT] (SEQ ID: 8); mouse FXR: [NT] (SEQ ID: 9) and [NT] (SEQ ID: 10); mouse BSEP: [NT] (SEQ ID: 11) and [NT] (SEQ ID: 12). C57BL/6N male mice were from The Jackson's Laboratory. […] The general health of the animals was monitored daily by the Veterinarian in the animal facility. […]

[2] = tested on: SHP mRNA; experiment: SHP mRNA expression in HepG2 cells (RT-PCR); type: cell-based, human
Experimental: RNA isolation and RT-PCR. HepG2 cells were plated at the density of 1×10^6 cells/flask in T25 flask. […] Total RNA was isolated from HepG2 cells or liver tissue using the TRIzol reagent according to the manufacturer's specifications (Invitrogen). One microgram of purified RNA was treated with DNase-I and reverse transcribed with QuantiTect Reverse Transcription Kit (Qiagen). For Real Time PCR, 10 ng template was dissolved in 25 μL containing 200 nmol/L of each primer and 12.5 μL of 2×SYBR FAST Universal ready mix (Invitrogen). All reactions were performed in triplicate, and the thermal cycling conditions were as follows: 2 min at 95° C., followed by 40 cycles of 95° C. for 20 s and 60° C. for 30 s in StepOnePlus (Applied Biosystems). The relative mRNA expression was calculated in accord to the Ct method. Forward and reverse primer sequences were the following: human GAPDH: [NT] (SEQ ID: 1) and [NT] (SEQ ID: 2); human SHP: [NT] (SEQ ID: 3) and [NT] (SEQ ID: 4); mouse GAPDH, [NT] (SEQ ID: 5) and [NT] (SEQ ID: 6); mouse SHP [NT] (SEQ ID: 7) and [NT] (SEQ ID: 8); mouse FXR: [NT] (SEQ ID: 9) and [NT] (SEQ ID: 10); mouse BSEP: [NT] (SEQ ID: 11) and [NT] (SEQ ID: 12).

[3] = tested on: liver SHP mRNA; experiment: Liver SHP mRNA expression in mice after administration of compound; type: in vivo, mouse; details: administered per os, 10 mg/kg daily for 3 days
Experimental: as §1

[4] = Microsomal stability in mouse liver microsomes; type: in vitro ADME; details: male CD-1 mouse liver microsomes, 1 μM compound, 37° C.
Experimental: Male mouse (CD-1) liver microsomes (Sigma-Aldrich) were used. All incubations were performed in duplicate in a shaking water bath at 37° C. […] Aliquots were removed at 0, 5, 10, 20, 30, and 40 min after microsome addition and the reaction was stopped by adding 200 μL of ice-cold acetonitrile. After 2 h, the samples were centrifuged for 10 min at 10000 rpm, and the supernatants were transferred in matrix tubes for LC-MS/MS analysis. Propranolol, known as a high hepatic clearance drug in rodents, was used as a quality-control compound for the microsomal incubations. The slope of the linear regression of the curve obtained reporting the natural logarithm of compound area versus incubation time (−k) was used in the conversion to in vitro t1/2 values by t1/2=−ln(2)/k. In vitro intrinsic clearance (CLint expressed as μL/min/mg) was calculated according to the following formula: Clint=volume of reaction (μL)/t1/2 (min)/protein of liver microsomes (mg).

[5] = rats, oral administration; cited from earlier work
[6] = ascribed to the stilbene moiety; cited from earlier work

Row | SMILES | liver BSEP mRNA expression [1] | SHP mRNA expression induction ([2]; 5 μM concentration, 18 h) [times] | liver SHP mRNA expression [3] | Clint [4] [µL/min/mg] | t1/2 [4] [min] | intestinal absorption [5] [%] | terminal half-life [5] | SHP mRNA expression induction ([2]; reference compound at 10 μM concentration) [times] | UV light stability [6]
1 | CC(C)c1onc(-c2c(Cl)cccc2Cl)c1COc1ccc(COc2ccc(C(=O)O)cc2)cc1 [BAR2109, 4-((4-((3-(2,6-dichlorophenyl)-5-isopropylisoxazol-4-yl)methoxy)benzyl)oxy)benzoic Acid] | inducing | 6.8 | inducing | – | – | – | – | – | –
2 | CC(C)c1onc(-c2c(Cl)cccc2Cl)c1COc1ccc(COc2cccc(C(=O)O)c2)cc1 [BAR2123, 3-((4-((3-(2,6-dichlorophenyl)-5-isopropylisoxazol-4-yl)methoxy)benzyl)oxy)benzoic Acid] | – | 6.2 | – | – | – | – | – | – | –
3 | CC(C)c1onc(-c2c(Cl)cccc2Cl)c1COc1ccc(/C=C/c2cccc(C(=O)O)c2)c(Cl)c1 [GW4064] | – | – | – | 56 | 41 | < 10 | short | 4.2 | UV light instability
